Experiments:
[1] = system: mice; experiment: Enhancement of potency of adenovirus-vectored epicutaneous vaccine, co-administered without ablation of the stratum corneum; type: in vivo, mouse; conditions: topical adenovirus vector expressing tetC mixed with TDM, no ablation of stratum corneum, sera 1 month postimmunization
Procedure: Tests of the ability of TDM to enhance the potency of an adenovirus-vectored epicutaneous vaccine when co-administered without ablation of the stratum comeum were also conducted. Here, mice were immunized by topical application of an adenovirus vector expressing tetC mixed with TDM at the indicated concentration, and sera were analyzed 1 month postimmunization.

[2] = system: mice; experiment: Enhancement of potency of E. coli-vectored epicutaneous vaccine, co-administered without ablation of the stratum corneum; type: in vivo, mouse; conditions: topical E. coli vector expressing tetC mixed with TDM, skin not ablated by brushing, sera 2 months postimmunization
Procedure: Preliminary tests of the ability of tetradecyl-β-D maltoside (purchased from Anatrace) to enhance the potency of an E. coli-vectored epicutaneous vaccine when co-administered without ablation of the stratum corneum were conducted. Specifically, mice were immunized by topical application of an E. coli vector expressing tetC mixed with TDM at the indicated concentration and sera were analyzed 2 months postimmunization.

[3] = system: Mouse skin; experiment: Permeabilization of stratum corneum, electron microscopy of cutaneous architecture; type: in vivo; conditions: mouse skin ablated by mechanical brushing, topical TDM incubated 15 min with naked skin
Procedure: Mouse skin was ablated by mechanical brushing prior to topical application of TDM, followed by incubation of TDM at the indicated concentration with naked skin for 15 min, followed by examination of the cutaneous architecture under an electron microscope.

CCCCCCCCCCCCCCO[C@@H]1O[C@H](CO)[C@@H](O[C@H]2O[C@H](CO)[C@@H](O)[C@H](O)[C@H]2O)[C@H](O)[C@H]1O [TDM, tetradecyl-β-D-maltoside]
enhancement of the potency of an adenovirus-vectored epicutaneous vaccine (sera analyzed) [1]: No significant increase over the control
enhancement of the potency of an E. coli-vectored epicutaneous vaccine (sera analyzed) [2]: No increase over the control
effect on stratum corneum (cutaneous architecture under electron microscope) [3]: permeablization of the stratum comeum

From patent publication US7524510B2, “Alkyl-glycoside enhanced vaccination” (The UAB Research Foundation, priority 2005, dated 2009)
